Patent US20110065760A1, “COMPOUNDS FOR THE INHIBITION OF ROTAMASES AND USE THEREOF” (Jerini AG, priority 2002, published 2011)

Columns and labels:
[1] = molecular target: hFKBP12 (Homo sapiens, UniProt P62942); experiment: protease-coupled PPIase assay, hFKBP12; format: biochemical; settings: 20 nM hFKBP12, substrate Suc-Ala-Phe-Pro-Phe-pNA, chymotrypsin, pH 7.8, 6° C.; read-out: IC50 class, Target T-2 (hFKBP12)
[2] = molecular target: LpCyp18 (Legionella pneumophila, UniProt Q5ZRZ4); experiment: biochemical; settings: IC50 class, Target T-4 (LpCyp18)
[3] = molecular target: EcParvulin (Escherichia coli, UniProt P0A9L5); experiment: protease-coupled PPIase assay, EcParvulin; format: biochemical
[4] = molecular target: T1, Papain (Carica papaya, UniProt P00784); experiment: papain assay; format: biochemical; settings: 16 μg/ml papain, 2 mM Bz-DL-Arg-pNA, pH 6.5, 30° C., 30 min incubation; read-out: IC50 class, Target T-6 (Papain)
T1 sequence (P00784 134-345): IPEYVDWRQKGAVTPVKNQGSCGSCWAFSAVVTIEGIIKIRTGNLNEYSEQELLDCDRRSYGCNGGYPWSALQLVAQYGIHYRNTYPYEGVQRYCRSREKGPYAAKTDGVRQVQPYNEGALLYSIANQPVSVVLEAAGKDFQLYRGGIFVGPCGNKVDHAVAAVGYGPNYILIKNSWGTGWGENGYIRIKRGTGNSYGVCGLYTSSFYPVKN
Method in brief: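 Enzyme pre-incubated 30 min with 1-100 μM compound at 30° C, then pNA substrate added; 4-nitroaniline release read at 390 nm. Trypsin: 0.1 μg/ml, 120 μM Ac-Ala-Ala-Ser(PO3H2)-Pro-Arg-pNA, HEPES pH 7.8; cathepsin B: 0.2 μg/ml, 2 mM Z-Arg-Arg-pNA, phosphate/EDTA/Brij 35 pH 5.8; papain: 16 μg/ml, 2 mM Bz-DL-Arg-pNA, phosphate/L-Cys/EDTA pH 6.5.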

[5] = molecular target: T2, Trypsin (UniProt P00760); experiment: trypsin assay; format: biochemical; settings: 0.1 μg/ml trypsin, 120 μM Ac-Ala-Ala-Ser(PO3H2)-Pro-Arg-pNA, pH 7.8, 30° C., 30 min incubation; read-out: IC50 class, Target T-7 (Trypsin)
T2 sequence (P00760 1-246): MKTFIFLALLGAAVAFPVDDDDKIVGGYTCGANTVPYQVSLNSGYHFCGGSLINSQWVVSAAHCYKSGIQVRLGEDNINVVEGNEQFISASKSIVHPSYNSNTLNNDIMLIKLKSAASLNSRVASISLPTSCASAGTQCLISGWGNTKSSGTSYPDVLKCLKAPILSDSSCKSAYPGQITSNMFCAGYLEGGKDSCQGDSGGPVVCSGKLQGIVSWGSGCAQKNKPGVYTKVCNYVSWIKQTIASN
Protocol: (§1) In order to investigate the impact of some of the inventive compounds on the activity of key proteases the following assay was performed: Protease activities were measured spectrophotometrically at 30° C. according to Schomburg and Salzmann (Schomburg, B.; Salzmann M. GBF: Enzyme Handbook. Springer Verlag, Berlin Heidelberg, 1991) and Bergmeyer et al. (Bergmeyer, H. U.; Bergmeyer, J.; Graβl, M. Methods of Enzymatic Analysis, Vol. V Enzymes 3: Peptides, Proteinases and Their Inhibitors. pp 55-371, VCH, Weinheim, 1988). The release of 4-nitroaniline was determined at 390 nm with a Spectramax Plus UV/Vis spectrophotometer (Molecular Devices). The cathepsin B assay was performed in a reaction mixture containing 0.2 μg/ml cathepsin B, 2 mM Z-Arg-Arg-pNA in 88 mM KH2PO4, 12 mM Na2HPO4, 1.33 mM EDTA, 0.03% Brij 35 (pH 5.8). The trypsin assay was carried out in a reaction mixture containing 0.1 μg/ml trypsin and 120 μM Ac-Ala-Ala-Ser(PO3H2)-Pro-Arg-pNA in 35 mM HEPES (pH 7.8) and the papain assay in a mixture consisting of 16 μg/ml papain and 2 mM Bz-DL-Arg-pNA in 10 mM Na2HPO4, 2 mM L-Cys, 5 mM EDTA (pH 6.5). In general, reactions were started by addition of peptide substrate after a 30 min incubation of 1-100 μM effector with given concentrations of enzyme.

[6] = molecular target: cathepsin B (Homo sapiens, UniProt P07858); experiment: cathepsin B assay; format: biochemical; settings: 0.2 μg/ml cathepsin B, 2 mM Z-Arg-Arg-pNA, pH 5.8, 30° C., 30 min incubation; read-out: IC50 class, Target T-8 (Cathepsin)
Protocol: as §1

[7] = WST-1 cytotoxicity assay, HL-60; format: cell-based; settings: human, HL-60 cells (acute myeloid leukemia); WST-1, 48 h incubation; read-out: EC50 class, cytotoxic effect, CL-1 (HL-60)
Method in brief: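 Human tumour cell lines in culture were exposed to compounds at 37° C for 48 h, then given WST-1. Viability was read as formazan absorbance at (450 vs. 620) nm.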

[8] = WST-1 cytotoxicity assay, HeLa; format: cell-based; settings: human, HeLa cells (cervix carcinoma); WST-1, 48 h incubation; read-out: EC50 class, cytotoxic effect, CL-2 (HeLa)
Protocol: (§2) For this cytotoxic evaluation of the compounds the commercial available WST-1 assay (Roche) was used according to the manufacturer's instructions. The assay is based on the cleavage of the tetrazolium salt WST-1 by mitochondrial dehydrogenases found in viable cells. In general compounds were added to cells cultured in 96-well plates at 37° C. After 48 h of incubation 10 μl of WST-1 solution was added. The formazan dye was analyzed with an ELISA plate reader at (450 vs. 620) nm. CL-1: human acute myeloid leukemia, HL-60 CL-2: human cervix carcinoma, HeLa CL-3: human prostate carcinoma, PC-3 CL-4: human colon adenocarcinoma, Caco-2 CL-5: human breast adenocarcinoma, MCF-7

[9] = WST-1 cytotoxicity assay, Caco-2; format: cell-based; settings: human, Caco-2 cells (colon adenocarcinoma); WST-1, 48 h incubation; read-out: EC50 class, cytotoxic effect, CL-4 (Caco-2)
Protocol: as §2

[10] = system: cyclin D1 in MCF-7 and HeLa cells; experiment: Cyclin D1 down regulation (western blot marker analysis); format: cell-based, human
Protocol: MCF-7 (5×10^5 cells/well) and HeLa cells (1.5×10^5 cells/well) were seeded in 6-well plates and incubated at 37° C. over night. Compounds or DMSO (final solvent concentration 0.1%) were added to the cells and incubated for different times as indicated. Subsequently, cells were lysed in RIPA buffer for 30 min on ice and centrifuged for 20 min at 4° C. After addition of electrophoresis sample buffer (4×) and 50 mM DTT to the supernatant, samples were boiled for 4 min at 95° C. Samples (equivalent to 2×10^5 cells/well) were run on a 15% SDS gel followed by blotting onto PVDF membrane.
The membrane was blocked for 1 h in 10 mM Tris (pH 7.5), 100 mM NaCl, 0.1% Tween-20 and 5% non-fat dry milk (blocking buffer) and incubated for 1 h with mouse anti-hCyclin D1 monoclonal antibody (clone DCS-6, BD Biosciences) diluted to 1 μg/ml in blocking buffer. Blots were washed 3×10 min with 10 mM Tris (pH 7.5), 100 mM NaCl, 0.1% Tween-20 (washing buffer) and incubated with 0.7 μg/ml peroxidase-conjugated sheep anti-mouse IgG (Sigma) in blocking buffer for 1 h. After washing 3×10 min with washing buffer, the plot was developed with the ECL+ detection kit (Amersham Biosciences).

LpCyp18, sequence (Q5ZRZ4 1-164): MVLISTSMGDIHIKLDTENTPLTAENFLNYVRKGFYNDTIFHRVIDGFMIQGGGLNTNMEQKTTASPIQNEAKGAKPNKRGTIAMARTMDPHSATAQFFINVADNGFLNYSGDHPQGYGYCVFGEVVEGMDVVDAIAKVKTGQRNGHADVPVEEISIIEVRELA
hFKBP12, sequence (P62942 whole entry): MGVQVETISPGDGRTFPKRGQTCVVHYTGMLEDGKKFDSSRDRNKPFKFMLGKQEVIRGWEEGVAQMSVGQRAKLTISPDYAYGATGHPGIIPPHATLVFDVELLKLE
EcParvulin, sequence (P0A9L5 whole entry): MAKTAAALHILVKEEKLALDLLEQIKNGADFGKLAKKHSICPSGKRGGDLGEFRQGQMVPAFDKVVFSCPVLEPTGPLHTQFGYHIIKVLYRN

For `Cc1c(Cl)cc(NC(=O)NC(C)(C)CC(C)(C)C)c(O)c1Cl` [Compound 102], the IC50 [1] was greater than 100 µM, the IC50 [2] was 10 to 50 µM and the IC50 [3] was 1 to 10 µM. For the same compound, the IC50 [4] was 50 to 100 µM, the IC50 [5] was 10 to 50 µM and the IC50 [6] was 50 to 100 µM. The EC50 at 48 h [7] was less than 10 µM, the EC50 at 48 h [8] was less than 10 µM and the EC50 at 48 h [9] was less than 10 µM. For the same compound, the “cyclin D1 down regulation” value [10] was “particular relevance”.
